Structures can show the parent of a compound that is named as a salt. Where two headings read alike, the source gives them in different places.

A short description of data set [1]: Absorbance of chemical solution at 400 nm (OD400). The class given is physicochemical.
The nature of data set [2]: pH of chemical solution. The class given is physicochemical.
The test system of data set [3] is mouse spleen. The data set is described as follows: Decoloring of mouse spleen (OD420 of supernatant, transmissive image). The settings on record: 10 wt % solution, 37° C. overnight.
Data set [4] deals with mouse hemisphere. The data set is described as follows: Delipidation and clearing of mouse hemisphere. The note with it: basic chemicals with pH of 11 to 12; 10 wt %, 37° C., 3 days, then CUBIC-2A. Here is the method: Subsequently, the delipidation efficiency of the series of compounds in mammalian tissue was examined. […] The transmittance of the brain tissue was measured, and then the brain tissue was washed with PBS and was disrupted. […] It was thus shown that the above basic chemicals and some neutral chemicals were better than the detergents from the viewpoint of permeability with respect to tissue. […] Subsequently, the mouse hemisphere was subjected to refractive index adjustment with CUBIC-2A. […] Accordingly, #0414 (N-butyldiethanolamine) was selected as a highly-efficient delipidation chemical.

Data set [5] relates to bovine coagulated blood. The data set is described as follows: Decoloring screening: heme eluted from PFA-fixed bovine coagulated blood, absorbance of supernatant. The settings on record: Table 2, 10 wt % aqueous solution, 37° C. overnight; for 700 nm calibrated 420 nm Average: decoloring activity OD420-OD700 of supernatant. The procedure: A high-throughput screening system for evaluating the decoloring ability of various compounds was constructed. The screening system involved adding an aqueous solution of each compound to bovine coagulated blood and then measuring the absorbance of heme collected in the supernatant.
Specifically, to bovine blood, an equal amount of 8% PFA solution was added, and reacted at 4° C. overnight. The mixed liquid was centrifuged at 1500×g for 5 minutes, and the supernatant containing PFA was discarded. Then, the same amount of PBS as the original volume of blood was added to prepare a coagulated blood sample. To 150 μL of 10 wt % aqueous solution of each compound, 50 μL of the coagulated blood sample was added, and reacted at 37° C. overnight. The reaction solution was centrifuged at 1500×g for 5 minutes, and then 100 μL of the supernatant was added to a plate so as to be subjected to absorbance measurement. A sample which is suspended in water instead of being dissolved in the water has a weak decoloring effect, but none the less has a high absorbance value. […]

In data set [6] the test system is mouse brain. The data set is described as follows: Swelling and clearing of delipidated mouse brain. The settings on record: brain delipidated with CUBIC-1, shaken 3 days.
Setting [7] is: Table 2, absorbance of chemical solution at 400 nm.

With `OCCN1CC1` [#1061, 1-(2-Hydroxyethyl)ethyleneimine], the 400 nm in data set [1] (setting [7]) was found to be 0.048. The pH in data set [2] (Table 2, chemical solution) was determined as 13.1.
Consider `CCCCCCCCCCCC[N+](C)(C)CCCS(=O)(=O)O` [#0694, Dodecyldimethyl(3-sulfopropyl)ammonium hydroxide], for which the 400 nm in data set [1] (setting [7]) was found to be 0.55; in data set [1] (Table 2, absorbance of chemical solution at 400 nm, listed as #0661) it was 0.051. The pH in data set [2] (Table 2, chemical solution, listed as #0661) turned out to be 6.5.
`C1CCC2=NCCCN2CC1` [#0594, 1,8-Diazabicyclo[5.4.0]-7-undecene]: the 400 nm in data set [1] (setting [7]) is 0.05. Further, the pH in data set [2] (Table 2, chemical solution) came out at 13.5.
As to Hydrazine carbonate [#1052], the OD400 in data set [1] worked out at 0.047. The compound further registered a pH in data set [2] of 10.2.
“Dodacene-1 LAS (JIS K 3361-1990) [#0672]” showed a 400 nm in data set [1] (setting [7]) of 0.081. Further, the pH in data set [2] (Table 2, chemical solution) is 5.9.
`NC[C@H](O)[C@@H](O)[C@H](O)[C@H](O)CO` [#0956, D-Glucoomine (FocusClear ™), reference compound] displayed an OD400 in data set [1] (Table 3) of 0.280.
The compound `Cc1cc(=O)n(-c2ccccc2)n1C` [#0640, 2,3-Dimethyl-1-phenyl-5-pyrazolone] gave a 400 nm in data set [1] (setting [7]) of 0.048. In addition, the OD400 in data set [1] (Table 3) stood at 0.048. Further, the pH in data set [2] (Table 2, chemical solution) stood at 7.5; in data set [2] (Table 3) it was 7.5.
`CCC(N)CCN` (centres unmarked) [#0678, 1,3-Diaminopentane] displayed a 400 nm in data set [1] (setting [7]) of 0.048.
The compound `Cc1cccc(C)c1NC1=NCCCS1.Cl` [#1612, Xylazine hydrochloride] returned an OD400 in data set [1] (Table 3) of 0.063. This compound showed a pH in data set [2] (Table 3) of 6.8.
`CC(C)(C)CC(C)(C)c1ccc(OCCOCC[N+](C)(C)Cc2ccccc2)cc1` [#0441, Benzethonium chloride] came in with a 400 nm in data set [1] of 0.049. Moreover, the pH in data set [2] is recorded as 6.4.
In data set [2] (Table 2, chemical solution), `CC(CN)CCCN` (centres unmarked) [#1267, 2-Methyl-1,5-diaminopentane] yielded a pH of 12.8.
The compound `c1cnccn1` [#1085, Pyrazine] registered a 400 nm in data set [1] (setting [7]) of 0.051. This compound also returned a pH in data set [2] (Table 2, chemical solution) of 8.6.
`CCCC[N+](CCCC)(CCCC)Cc1ccccc1.[Cl-]` [#0307, Benzyltributylammonium chloride]: the OD400 in data set [1] (Table 3) amounted to 0.048. For the same compound, in data set [2] (Table 3), the pH was found to be 7.0.
In data set [1], `CCCCCCCCCCCCCCCC[N+](C)(C)C` [#1235, Hexadecyltrimethylammonium Chloride] yielded a 400 nm of 0.048. The same compound registered a pH in data set [2] of 6.6.
In turn, `CN(CCCN)CCCN` [#0380, 3,3′-Diamino-N-methyldipropylamine] registered a 400 nm in data set [1] (setting [7]) of 0.065. The same compound had a pH in data set [2] (Table 2, chemical solution) of 13.0.
The like results for `[Cl-].c1ccc(C[P+](c2ccccc2)(c2ccccc2)c2ccccc2)cc1` [#0425, Benzyltriphenylphosphonium chloride] were, in that order, 0.048 and 9.3.
On to `CCn1ccnc1` [#0938, 1-Ethylimidazole], for which the “mouse spleen decoloring activity” value in data set [3] is “highest mouse spleen decoloring activity”.
As to `CNCC(O)c1cccc(O)c1.Cl` (racemic) [#1142, DL-Phenylephrine hydrochloride], the OD400 in data set [1] worked out at 0.060. In addition, the pH in data set [2] amounted to 6.7.
With `OCCNCc1ccccc1` [#0389, N-Benzylethanolamine], the “transparency of mouse hemispheres” value in data set [4] is listed as “selected”.
In data set [1] (setting [7]), Tween ® 40 [#1465] showed a 400 nm of 0.083. In addition, in data set [2] (Table 2, chemical solution), the pH was determined as 6.4.
As for `CCCCCCCCCCCC[n+]1ccccc1` [#0635, 1-Dodecylpyridinium chloride], in data set [5], the “Integrated value 500-700 nm Average” value worked out at 3.67 and the “700 nm calibrated 420 nm Average” value was 3.66.
With `CNC(=O)c1cccnc1` [#1283, N-Methylnicotinamide], in data set [5], the “700 nm calibrated 420 nm Average” value came to 2.96. Moreover, the OD400 in data set [1] (Table 3) is reported as 0.003.
`NCCCNCCCN` [#0785, 3,3′-Diaminodipropylamine] came in with a 400 nm in data set [1] (setting [7]) of 0.05. For the same compound, the OD400 in data set [1] (Table 3) is listed as 0.05. For the same compound, the pH in data set [2] (Table 2, chemical solution) worked out at 13.8; in data set [2] (Table 3), 13.8.
In data set [1] (Table 3), `C1CCC2=[N+](CC1)CCCN2.O=C1N=C([O-])c2ccccc21` [#1181, Phtalimide DBU salt] registered an OD400 of 0.049. The pH in data set [2] (Table 3) is listed as 6.0.
With `c1c[nH]cn1` [#1352, imidazole], in data set [6], the “swelling of mouse brain” value was “high-degree of swelling”.
Turning to `CN(C)CCSSCCN(C)C` [#0295, Bis(2-dimethylaminoethyl) disuflide dihydrochloride], the OD400 in data set [1] (Table 3) was determined as 0.047. In data set [2] (Table 3), the pH was found to be 5.3.
Consider `CCCCCCCCCCCCCC[N+](C)(C)Cc1ccccc1` [#0362, Benzyldimethyltetradecylammonium chloride hydrate], for which, in data set [5], the “Integrated value 500-700 nm Average” value amounted to 1.74 and the “700 nm calibrated 420 nm Average” value is recorded as 2.13. Also, the 400 nm in data set [1] (setting [7]) was 0.053. Besides, the pH in data set [2] (Table 2, chemical solution) came to 6.6.
For the compound `NCC(O)CN` [#1062, 1,3-Diamino-2-propanol], the “Integrated value 500-700 nm Average” value in data set [5] worked out at 0.50.
For the compound `NCC1CCOCC1` [#0407, 4-Aminomethyltetrahydropyran], in data set [1] (setting [7]), the 400 nm came out at 0.049.
On to `CN(C)CCOC(c1ccccc1)c1ccccc1.Cl` [#0909, Diphanhydramine hydrochloride], for which, in data set [1] (Table 3), the OD400 came out at 0.048. Moreover, in data set [2] (Table 3), the pH is reported as 7.0.
`C[C@H](CCC(=O)[O-])[C@H]1CC[C@H]2[C@@H]3CC[C@@H]4C[C@H](O)CC[C@]4(C)[C@H]3C[C@H](O)[C@]12C.[Na+]` [#1507, Sodium deoxycholate] showed a pH in data set [2] (Table 2, chemical solution, listed as #0562) of 8.3.
For the compound `CCCCN(CCO)CCO` [#0414, N-Butyldiethanolamine], the “transparency of mouse hemispheres” value in data set [4] was “selected”.
With `CCCCCCCCCCCC[N+](C)(C)C` [#1021, Dodecyltrimethylammonium chloride], the 400 nm in data set [1] (setting [7]) is on record as 0.048. In data set [2] (Table 2, chemical solution), this compound gave a pH of 7.5.
The matching figures for `Cl.O=C(O)CCP(CCC(=O)O)CCC(=O)O` [#0197, Tris(2-carboxyethyl)phosphine hydrochloride]: 0.047 and 2.3.
The compound `C[N+](C)(C)Cc1ccccc1.[OH-]` [#03887, Benzyltrimethylammonium hydroxide] came in with a 400 nm in data set [1] (setting [7]) of 0.054. Besides, the pH in data set [2] (Table 2, chemical solution, listed as #0398) was found to be 12.9.
`C[n+]1ccc(-c2cc[n+](C)cc2)cc1` [#0652, 1,1′-Dimethyl-4,4′-bipyridinium dichloride] registered a 400 nm in data set [1] (setting [7]) of 0.082. Besides, the pH in data set [2] (Table 2, chemical solution) is on record as 6.0.
As for `CCN(CC)CCO` [#1575, 2-Diethylaminoethanol], in data set [1] (setting [7]), the 400 nm is listed as 0.06. This compound yielded a pH in data set [2] (Table 2, chemical solution) of 12.8.

The values above are taken from US20190086302A1, “COMPOSITION FOR PREPARING BIOLOGICAL MATERIAL HAVING EXCELLENT LIGHT TRANSMISSIVITY AND USE OF COMPOSITION” (RIKEN, priority 2016, published 2019).
